Reference: patent US9650339B2, “Inhibitors of histone demethylases” (Gilead Sciences, Inc., priority 2013, dated 2017)

Assays:
MCF7 cells = experiment: Cell proliferation assay MCF7; type: cell-based; settings: MCF7 human breast cancer cells; 120 hours; ATPlite 1 Step
Summary of the method: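 Cells grown 24 h in DMEM GlutaMAX/10% FBS, then exposed to compounds in duplicate (≤0.5% DMSO) for 120 h. Viability read as ATP luminescence (ATPlite 1 Step). Seeding set to reach ~90% confluence at harvest.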

KDM7 (PHF8) = molecular target: T1, KDM7 (PHF8) (Homo sapiens, UniProt Q9UPP1); experiment: Histone lysine demethylase AlphaLISA assay, KDM7; type: biochemical; settings: read-out: PHF8 HDME Inhibition IC50
T1 construct: KDM7 (PHF8); BRIC; 1-1322; Bac
T1 sequence (Q9UPP1 37-440 limits assumed): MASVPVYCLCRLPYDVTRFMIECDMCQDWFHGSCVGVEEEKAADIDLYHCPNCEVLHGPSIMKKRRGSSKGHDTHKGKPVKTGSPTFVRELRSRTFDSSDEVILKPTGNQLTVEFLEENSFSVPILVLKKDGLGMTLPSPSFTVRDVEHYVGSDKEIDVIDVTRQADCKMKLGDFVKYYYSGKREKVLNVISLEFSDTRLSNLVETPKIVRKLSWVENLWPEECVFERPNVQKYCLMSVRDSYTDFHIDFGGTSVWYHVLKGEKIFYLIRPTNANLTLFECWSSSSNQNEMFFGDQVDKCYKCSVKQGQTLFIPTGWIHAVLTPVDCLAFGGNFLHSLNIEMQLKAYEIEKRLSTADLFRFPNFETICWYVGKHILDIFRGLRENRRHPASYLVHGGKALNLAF
Procedure: Assays are performed analogously to the protocol described by PerkinElmer (Roy et al. PerkinElmer Technical Note: AlphaLISA #12, April 2011)
Enzymes are dissolved in enzyme buffer and incubated for 10 min before being added to 3% DMSO solutions of compounds in enzyme buffer. Incubated for another 10 minutes, before substrate solution is added and the reaction mixture is incubated at room temperature. 10 μL acceptor beads, suspended in Epigenetic Buffer (Perkin Elmer AL008) from stock, are added and the suspension is incubated in the dark at room temperature, before a suspension of streptavidin donor beads (Perkin Elmer 6760002) in Epigenetic Buffer is added. After incubation at room temperature in the dark the plates are read. […]
BK9M2: Biotin-ARTKQTAR(KMe2)STGGKAPRKQ-NH2 (AnaSpec 64359)
BK9M1: Biotin-ARTKQTAR(KMe1)STGGKAPRKQ-NH2 (AnaSpec 64358) […]
Substrate Solution: Substrate, 25 μM L-Asc, and 10 μM α-KG in Buffer A.

KDM4C = molecular target: T2, KDM4C (Homo sapiens, UniProt Q9H3R0); experiment: Histone lysine demethylase immunofluorescence assay, U2OS cells transfected with KDM4C; type: cell-based; settings: U2OS cells transfected with pCMVHA KDM4C; mark detected H3K9me3; 20 hours
T2 construct: Full length; host or cells: U2OS
T2 sequence (Q9H3R0 1-1056): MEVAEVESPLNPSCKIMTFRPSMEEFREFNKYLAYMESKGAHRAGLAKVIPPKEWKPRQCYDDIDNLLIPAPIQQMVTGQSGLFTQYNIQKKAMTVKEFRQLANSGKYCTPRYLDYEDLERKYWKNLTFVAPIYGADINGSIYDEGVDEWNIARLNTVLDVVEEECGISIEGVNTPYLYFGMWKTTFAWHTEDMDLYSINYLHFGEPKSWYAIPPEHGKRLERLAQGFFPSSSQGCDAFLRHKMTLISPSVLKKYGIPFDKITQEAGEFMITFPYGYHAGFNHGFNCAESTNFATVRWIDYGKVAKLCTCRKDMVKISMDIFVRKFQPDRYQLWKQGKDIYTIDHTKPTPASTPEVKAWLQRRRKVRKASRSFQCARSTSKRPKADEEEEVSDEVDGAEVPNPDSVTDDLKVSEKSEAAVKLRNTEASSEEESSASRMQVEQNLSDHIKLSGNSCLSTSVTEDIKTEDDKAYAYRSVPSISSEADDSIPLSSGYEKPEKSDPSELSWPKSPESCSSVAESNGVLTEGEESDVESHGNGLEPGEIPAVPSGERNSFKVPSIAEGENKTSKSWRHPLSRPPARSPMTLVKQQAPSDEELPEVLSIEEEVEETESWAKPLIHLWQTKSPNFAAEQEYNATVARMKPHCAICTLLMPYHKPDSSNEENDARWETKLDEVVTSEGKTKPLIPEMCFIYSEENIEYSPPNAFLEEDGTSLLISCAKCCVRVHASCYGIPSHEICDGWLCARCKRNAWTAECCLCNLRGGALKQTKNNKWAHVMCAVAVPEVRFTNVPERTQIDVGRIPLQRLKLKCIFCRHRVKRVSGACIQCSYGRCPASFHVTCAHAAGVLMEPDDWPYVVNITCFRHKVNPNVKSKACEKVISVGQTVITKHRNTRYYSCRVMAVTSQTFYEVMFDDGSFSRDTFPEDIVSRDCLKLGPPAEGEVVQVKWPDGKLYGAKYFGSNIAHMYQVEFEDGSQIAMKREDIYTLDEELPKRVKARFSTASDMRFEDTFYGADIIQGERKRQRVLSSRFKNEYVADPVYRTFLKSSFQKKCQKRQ
Procedure: U2OS cells were seeded 24 hours before transfection. Transfection was performed with Fugene HD transfection reagent as recommended by the manufacturer. 6 hours after transfection, the cells were harvested and seeded into multi well plates into media containing compound. The media used was DMEM containing 10% FBS and pen/strep. 20 hours after incubation of cells with compounds, the cells were washed in PBS, harvested by fixation with formaldehyde 4% aqueous solution, and washed in PBS. Subsequently, the cells were permeabilized in PBS with 0.2% Triton X-100 for. Blocking was performed in PBS with 0.2% Triton X-100 and 5% FBS. The cells were incubated with primary antibodies in blocking solution over night at 4° C. The primary antibodies used in the assays were HA.11 (Covance, MMS-101P) and the antibody detecting the mark specified in the table below. After incubation with primary antibodies, the cells were washed with PBS, incubated with secondary antibodies (Alexa fluor 594 goat anti rabbit IgG, Invitrogen, A11012; Alexa flour 488 donkey anti mouse IgG, Invitrogen, A21202) and Hoechst, (Sigma, 33342) in blocking solution, and washed again with PBS. Finally, PBS was added and high throughput imaging and analysis were performed by an IN Cell Analyzer 1000 (GE Healthcare). The robot software analyzed individual cells and divided these into HA+ (transfected cells) and HA− (non-transfected cells). The IC50 values were based on an average measure of the staining of the mark specified in the table below in the transfected cells.

Compound | EC50 (MCF7 cells) | IC50 (KDM7 (PHF8)) | IC50 (KDM4C)
CCN(CCC#N)C(=O)CNCc1cc(/C=N/CCO)ccn1 [Compound 94, N-(2-cyanoethyl)-N-ethyl-2-[({4-[[(2-hydroxyethyl)imino]-methyl]pyridin-2-yl}methyl)amino]-acetamide] | > 2.5 µM | 0.25 to 2.5 µM | > 2.5 µM
CN(Cc1ccccc1F)C(=O)CNCc1cc(/C=N/CCO)ccn1 [Compound 92, N-[(2-fluorophenyl)methyl]-2-[({4-[[(2-hydroxyethyl)imino]-methyl]pyridin-2-yl}methyl)amino]-N-methylacetamide] | > 2.5 µM | > 2.5 µM | > 2.5 µM
CC(C)C[C@H](NCc1cc(/C=N/CCO)ccn1)C(=O)N1CCCCC1 [Compound 95, (2S)-2-[({4-[[(2-hydroxyethyl)imino]-methyl]pyridin-2-yl}methyl)amino]-4-methyl-1-(piperidin-1-yl)pentan-1-one] | > 2.5 µM | – | > 2.5 µM
CN(C)C(=O)CNCc1cc(/C=N/CCCc2ccccc2)ccn1 [Compound 34, N,N-dimethyl-2-[({4-[[(3-phenylpropyl)imino]-methyl]pyridin-2-yl}methyl)amino]-acetamide] | > 2.5 µM | > 2.5 µM | > 2.5 µM
CN(C)CCCCNCc1cc(CNC2CC2)ccn1 [Compound 10, N-{[2-({[4-(dimethylamino)butyl]-amino}methyl)pyridin-4-yl]methyl}-cyclopropanamine] | – | > 2.5 µM | > 2.5 µM
CCSCCNCc1cc(/C=N/C2CC2)ccn1 [Compound 39, N-{[2-({[2-(ethylsulfanyl)-ethyl]amino}methyl)pyridin-4-yl]methylidene}-cyclopropanamine] | – | < 0.25 µM | > 2.5 µM

Next, values leading:

EC50 (MCF7 cells) | IC50 (KDM7 (PHF8)) | IC50 (KDM4C) | Compound
> 2.5 µM | > 2.5 µM | > 2.5 µM | OCC/N=C/c1ccnc(CNCCc2ccccc2OCc2ccccc2)c1 [Compound 93, 2-[({2-[({2-[2-(benzyloxy)phenyl]-ethyl}amino)methyl]-pyridin-4-yl}methylidene)-amino]ethan-1-ol]
< 0.25 µM | > 2.5 µM | > 2.5 µM | CCN(CC)CCCCNCc1cc(C2NCCN2C)ccn1 (centres unmarked) [Compound 65, [4-(diethylamino)-butyl]({[4-(1-methylimidazolidin-2-yl)pyridin-2-yl]methyl})amine]
< 0.25 µM | > 2.5 µM | 0.25 to 2.5 µM | CN(C)CCCCCNCc1cc(CN)ccn1 [Compound 8, [2-({[5-(dimethylamino)pentyl]-amino}methyl)pyridin-4-yl]methanamine]
< 0.25 µM | 0.25 to 2.5 µM | – | CCN(CC)CCCCNCc1cc(/C=N/CCOC)ccn1 [Compound 60, [4-(diethylamino)butyl]-({4-[[(2-methoxyethyl)imino]-methyl]pyridin-2-yl}methyl)amine]
< 0.25 µM | > 2.5 µM | 0.25 to 2.5 µM | CCN(CCN(C)C)C(=O)CNCc1cc(/C=N/CCC2CCCCC2)ccn1 [Compound 63, 2-[({4-[[(2-cydohexylethyl)-imino]methyl]pyridin-2-yl}methyl)amino]-N-[2-(dimethylamino)-ethyl]-N-ethylacetamide]
– | < 0.25 µM | > 2.5 µM | O=C(CNCc1cc(/C=N/C2CC2)ccn1)NC1CCN(Cc2ccccc2)C1 (centres unmarked) [Compound 53, N-(1-benzylpyrrolidin-3-yl)-2-[({4-[N-cyclopropyl-carboximidoyl]pyridin-2-yl}methyl)amino]-acetamide]
– | 0.25 to 2.5 µM | > 2.5 µM | C#CCN(C)C(=O)CNCc1cc(/C=N/C2CC2)ccn1 [Compound 56, 2-[({4-[N-cyclopropyl-carboximidoyl]-pyridin-2-yl}methyl)amino]-N-methyl-N-(prop-2-yn-1-yl)acetamide]
– | > 2.5 µM | > 2.5 µM | CN(C)C(=O)CNCc1cc(CNCCF)ccn1 [Compound 14, 2-{[(4-{[(2-fluoroethyl)amino]-methyl}pyridin-2-yl)methyl]amino}-N,N-dimethylacetamide]
